From patent US9278981B2, “Compounds and compositions for inhibiting the activity of ABL1, ABL2 and BCR-ABL1” (Novartis AG, priority 2012, dated 2016)

Target: ABL1 (64-515) (Homo sapiens (Human), UniProt P00519)
Assay: Radio ABL1 (64-515) assay (radiometric filter-binding)
Assay type: biochemical

Chain of ABL1 (64-515) (P00519 64-515): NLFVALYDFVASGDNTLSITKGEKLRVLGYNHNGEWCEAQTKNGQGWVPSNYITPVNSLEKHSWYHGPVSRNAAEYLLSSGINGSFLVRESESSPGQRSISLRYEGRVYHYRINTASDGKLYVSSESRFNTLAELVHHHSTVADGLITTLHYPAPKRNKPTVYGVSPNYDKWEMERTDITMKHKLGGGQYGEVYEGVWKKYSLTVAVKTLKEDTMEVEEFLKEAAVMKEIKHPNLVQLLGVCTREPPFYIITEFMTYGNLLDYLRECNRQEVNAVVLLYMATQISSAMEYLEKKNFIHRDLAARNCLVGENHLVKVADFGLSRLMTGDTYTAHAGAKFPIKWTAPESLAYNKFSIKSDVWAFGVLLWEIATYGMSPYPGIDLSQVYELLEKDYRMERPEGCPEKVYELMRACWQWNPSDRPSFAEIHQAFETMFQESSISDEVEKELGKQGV

| Structure (SMILES) | IC50 [nM] |
| --- | --- |
| O=C(Nc1ccc(OC(F)(F)F)cc1)c1cnc(N2CCC(O)CC2)c(-c2cncnc2)c1 [Example 22] | < 3 |
| N#Cc1ncc(-c2cc(C(=O)Nc3ccc(OC(F)(F)F)cc3)cnc2N2CC[C@H](CO)C2)cn1 [Example 80, (S)-5-(2-Cyanopyrimidin-5-yl)-6-(3-(hydroxymethyl)pyrrolidin-1-yl)-N-(4-(trifluoromethoxy)phenyl)nicotinamide] | 5 |
| CC(=O)NC1CCN(c2ncc(C(=O)Nc3ccc(OC(F)(F)F)cc3)cc2-c2cncnc2)C1 (stereo not drawn) [Example 15] | < 3 |
| Cc1ccc(-c2cc(C(=O)Nc3ccc(OC(F)(F)F)cc3)ccc2N2CC[C@@H](O)C2)cn1 [Example 6, (R)-4-(3-Hydroxypyrrolidin-1-yl)-3-(6-methylpyridin-3-yl)-N-(4-(trifluoromethoxy)phenyl)benzamide] | < 3 |
| Cc1cncc(-c2cc(C(=O)Nc3ccc(OC(F)(F)F)cc3)cnc2N2CC[C@@H](O)C2)c1 [Example 44, (R)-2-(3-Hydroxypyrrolidin-1-yl)-5′-methyl-N-(4-(trifluoromethoxy)phenyl)-[3,3′-bipyridine]-5-carboxamide] | < 3 |
| N#C[C@@H]1CCCN(c2ncc(C(=O)Nc3ccc(OC(F)(F)F)cc3)cc2-c2cncnc2)C1 [Example 23] | < 3 |
| COc1cncc(-c2cc(C(=O)Nc3ccc(OC(F)(F)F)cc3)cnc2N2CC[C@@H](O)C2)c1 [Example 55, (R)-2-(3-hydroxypyrrolidin-1-yl)-5′-methoxy-N-(4-(trifluoromethoxy)phenyl)-[3,3′-bipyridine]-5-carboxamide] | 3 |
| O=C(Nc1ccc(OC(F)(F)F)cc1)c1cnc(N2CC[C@H](CO)C2)c(-c2ccc(C3CC3)nc2)c1 [Example 85, (S)-6′-Cyclopropyl-2-(3-(hydroxymethyl)pyrrolidin-1-yl)-N-(4-(trifluoromethoxy)phenyl)-[3,3′-bipyridine]-5-carboxamide] | 26 |
| Cc1ccc(-c2cc(C(=O)Nc3ccc(OC(F)(F)F)cc3)cnc2N2CCC(O)C2)cn1 (stereo not drawn) [Example 30, 2-(3-Hydroxypyrrolidin-1-yl)-6′-methyl-N-(4-(trifluoromethoxy)phenyl)-[3,3′-bipyridine]-5-carboxamide] | < 3 |
| O=C(Nc1ccc(OC(F)(F)F)cc1)c1cnc(N2CC[C@H](CO)C2)c(-c2cccnc2)c1 [Example 81, (S)-2-(3-(Hydroxymethyl)pyrrolidin-1-yl)-N-(4-(trifluoromethoxy)phenyl)-[3,3′-bipyridine]-5-carboxamide] | < 3 |
| O=C(Nc1ccc(OC(F)(F)F)cc1)c1cnc(N2CCC(O)C2)c(-c2cccnc2)c1 (stereo not drawn) [Example 29, 2-(3-Hydroxypyrrolidin-1-yl)-N-(4-(trifluoromethoxy)phenyl)-[3,3′-bipyridine]-5-carboxamide] | < 3 |
| CN1CC2CN(c3ncc(C(=O)Nc4ccc(OC(F)(F)F)cc4)cc3-c3cncnc3)CC2C1 (stereo not drawn) [Example 16] | < 3 |
| O=C(Nc1ccc(OC(F)(F)F)cc1)c1cnc(N2CCC3(CCNC3=O)C2)c(-c2cncnc2)c1 (stereo not drawn) [Example 17] | < 3 |

Other lines, results leading:

| IC50 [nM] | Structure (SMILES) |
| --- | --- |
| < 3 | N[C@H]1CCN(c2ncc(C(=O)Nc3ccc(OC(F)(F)F)cc3)cc2-c2cccnc2)C1 [Example 97, (S)-2-(3-Aminopyrrolidin-1-yl)-N-(4-(trifluoromethoxy)phenyl)-[3,3′-bipyridine]-5-carboxamide] |
| < 3 | Cc1ccc(-c2cc(C(=O)Nc3ccc(OC(F)(F)F)cc3)cnc2N2CCCN(C)CC2)cn1 [Example 147, 6′-Methyl-2-(4-methyl-1,4-diazepan-1-yl)-N-(4-(trifluoromethoxy)phenyl)-[3,3′-bipyridine]-5-carboxamide] |
| < 3 | CN(C)C1CCN(c2ncc(C(=O)Nc3ccc(OC(F)(F)F)cc3)cc2-c2cncnc2)C1 (stereo not drawn) [Example 112, 6-(3-(Dimethylamino)pyrrolidin-1-yl)-5-(pyrimidin-5-yl)-N-(4-(trifluoromethoxy)phenyl)nicotinamide] |
| 30 | Cc1ccc(-c2cc(C(=O)Nc3ccc(OC(F)(F)F)cc3)cnc2N(C)CCCO)cn1 [Example 167, 2-((3-Hydroxypropyl)(methyl)amino)-6′-methyl-N-(4-(trifluoromethoxy)phenyl)-[3,3′-bipyridine]-5-carboxamide] |
| < 3 | N[C@@H]1CCN(c2ncc(C(=O)Nc3ccc(OC(F)(F)F)cc3)cc2-c2cccnc2)C1 [Example 94, (R)-2-(3-Aminopyrrolidin-1-yl)-N-(4-(trifluoromethoxy)phenyl)-[3,3′-bipyridine]-5-carboxamide] |
| < 3 | CN1CCCN(c2ncc(C(=O)Nc3ccc(OC(F)(F)F)cc3)cc2-c2cccnc2)CC1 [Example 146, 2-(4-Methyl-1,4-diazepan-1-yl)-N-(4-(trifluoromethoxy)phenyl)-[3,3′-bipyridine]-5-carboxamide] |
| < 3 | Cc1ccc(-c2cc(C(=O)Nc3ccc(OC(F)(F)F)cc3)cnc2NCCCO)cn1 [Example 163, 2-((3-Hydroxypropyl)amino)-6′-methyl-N-(4-(trifluoromethoxy)phenyl)-[3,3′-bipyridine]-5-carboxamide] |
| < 3 | COc1ccc(-c2cc(C(=O)Nc3ccc(OC(F)(F)F)cc3)cnc2N2CC[C@@H](CN)C2)cn1 [Example 111, (S)-2-(3-(Aminomethyl)pyrrolidin-1-yl)-6′-methoxy-N-(4-(trifluoromethoxy)phenyl)-[3,3′-bipyridine]-5-carboxamide] |
| < 3 | CN[C@H]1CCN(c2ncc(C(=O)Nc3ccc(OC(F)(F)F)cc3)cc2-c2cccnc2)C1 [Example 103, (S)-2-(3-(Methylamino)pyrrolidin-1-yl)-N-(4-(trifluoromethoxy)phenyl)-[3,3′-bipyridine]-5-carboxamide] |
| < 3 | CN[C@@H]1CCN(c2ncc(C(=O)Nc3ccc(OC(F)(F)F)cc3)cc2-c2cccnc2)C1 [Example 100, (R)-2-(3-(Methylamino)pyrrolidin-1-yl)-N-(4-(trifluoromethoxy)phenyl)-[3,3′-bipyridine]-5-carboxamide] |
| 5 | Cc1ccc(-c2cc(C(=O)Nc3ccc(OC(F)(F)F)cc3)cnc2N2CC[C@@H](CN)C2)cn1 [Example 110, (S)-2-(3-(Aminomethyl)pyrrolidin-1-yl)-6′-methyl-N-(4-(trifluoromethoxy)phenyl)-[3,3′-bipyridine]-5-carboxamide] |
| 5 | N#Cc1ccc(-c2cc(C(=O)Nc3ccc(OC(F)(F)F)cc3)cnc2N2CC[C@H](CO)C2)cn1 [Example 91, (S)-6′-Cyano-2-(3-(hydroxymethyl)pyrrolidin-1-yl)-N-(4-(trifluoromethoxy)phenyl)-[3,3′-bipyridine]-5-carboxamide] |
| 19 | O=C(Nc1ccc(OC(F)(F)F)cc1)c1cnc(N2CC[C@@H](O)C2)c(-c2cncc(C(F)(F)F)c2)c1 [Example 234, (R)-2-(3-Hydroxypyrrolidin-1-yl)-N-(4-(trifluoromethoxy)phenyl)-5′-(trifluoromethyl)-[3,3′-bipyridine]-5-carboxamide] |
| 12 | COc1ccc(-c2cc(C(=O)Nc3ccc(OC(F)(F)F)cc3)cnc2NCCCO)cn1 [Example 164, 2-((3-Hydroxypropyl)amino)-6′-methoxy-N-(4-(trifluoromethoxy)phenyl)-[3,3′-bipyridine]-5-carboxamide] |
